Assay [1] has as its target T1, recombinant human DHODH (Homo sapiens, UniProt Q02127). In words: Kinetic DHODH enzyme assay (3,4-dimethoxy-5-methyl-p-benzoquinone, DCIP). It is filed as biochemical. The arrangement: made in house. Particulars: Fig. 5a; average of three independent repeats ± SD. As for the experimental part: In Fig. 5a enzyme assays were optimized and performed with 6 nM recombinant human DHODH prepared as described. The reaction mixture for these kinetic assays consisted of 1 mM DL-dihydroorotic acid, 100 µM 3,4-dimethoxy-5-methyl-p-benzoquinone (#D9150, Sigma-Aldrich), and 100 µM DCIP in enzyme buffer. A stock solution of 20 mM DCIP was prepared in enzyme buffer and filtered through filter paper (20–25 μm pore size) just before use. Loss in absorbance by DCIP was measured at 595 nm at RT in a stepped time course (8 × 2 min, 8 × 3 min, 6 × 5 min). […] Therefore, for each concentration of inhibitor tested, a value for DHODH’s Vmax was estimated by linear regression within this time frame.
Target sequence in this assay (Q02127 29-395 limits assumed): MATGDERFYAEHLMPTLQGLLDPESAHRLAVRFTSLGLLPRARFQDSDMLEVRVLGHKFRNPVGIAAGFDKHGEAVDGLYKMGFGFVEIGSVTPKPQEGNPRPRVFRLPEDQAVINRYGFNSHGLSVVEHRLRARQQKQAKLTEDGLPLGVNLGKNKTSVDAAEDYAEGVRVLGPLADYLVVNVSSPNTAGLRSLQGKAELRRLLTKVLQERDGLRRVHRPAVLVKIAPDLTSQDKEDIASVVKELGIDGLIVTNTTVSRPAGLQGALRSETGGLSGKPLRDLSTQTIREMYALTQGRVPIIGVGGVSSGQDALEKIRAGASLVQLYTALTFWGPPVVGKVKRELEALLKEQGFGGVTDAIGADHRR

In the next assay the test system is ARN8 cells. In words: SRB growth/viability assay, ARN8. The format is cell-based, human. Conditions: ARN8; Fig. 4e. As for the experimental part: SRB assays measuring protein content were performed in 96-well plates as previously described.
Assay [2] concerns the target T1, recombinant human DHODH. In words: Endpoint DHODH enzyme assay (coenzyme Q10, DCIP). The arrangement: purchased Prospecbio ENZ-642. Particulars: compound at 10 µM; Supplementary Table 5, 20,000 compound library. It is filed as biochemical. The procedure: In Supplementary Tables 5 and 6, endpoint assays were performed with 10 nM recombinant human DHODH (#ENZ-642, Prospecbio). The reaction mixture consisted of 624.6 µM DL-dihydroorotic acid, 66.4 µM coenzyme Q10, 66.4 µM 2,6-dichlorophenolindophenol sodium salt (DCIP) (all reagents purchased from Sigma-Aldrich) in enzyme buffer (50 mM Tris-HCl, pH 8.0, 0.1% Triton X-100, 150 mM KCl). Loss in absorbance by DCIP was measured at 595 nm after incubation at RT for 60 min.
Target sequence in this assay (Q02127 31-395 limits assumed): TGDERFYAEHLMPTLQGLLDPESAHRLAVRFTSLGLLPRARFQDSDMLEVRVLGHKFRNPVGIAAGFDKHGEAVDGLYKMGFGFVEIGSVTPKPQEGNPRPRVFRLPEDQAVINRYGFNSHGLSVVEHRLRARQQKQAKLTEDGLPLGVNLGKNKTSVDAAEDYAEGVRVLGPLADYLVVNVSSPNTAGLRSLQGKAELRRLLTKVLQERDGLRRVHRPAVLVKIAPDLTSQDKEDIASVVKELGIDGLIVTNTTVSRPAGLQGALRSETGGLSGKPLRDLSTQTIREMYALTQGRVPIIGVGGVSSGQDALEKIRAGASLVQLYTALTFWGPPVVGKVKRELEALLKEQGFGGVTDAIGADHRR

This is an account of results in paper PMC5856786, “A DHODH inhibitor increases p53 synthesis and enhances tumor cell killing by p53 degradation blockage” (Nature Communications, 2018).

SMILES strings stand for the structures.

The IC50 is the concentration needed to halve the response being measured. For `O=C(N[C@H]1CCCc2c1cnn2-c1ccccc1F)c1onc2c1CCCC2` [(S)-HZ05], on recombinant human DHODH [1], the IC50 came to 6.7 ± 0.67 µM.
Same read-out and setting: to `O=C(NC1CCCc2c1cnn2-c1ccc(F)cc1F)c1onc2c1CCCC2` (stereo not shown) [HZ02] belongs 0.289 ± 0.046 µM.
Same read-out and setting: to `Cc1ccc(-n2ncc3c2CC(C)(C)CC3NC(=O)c2ccccn2)cc1` (stereo not shown) [HZ25] belongs over 10 µM.
Take `Cc1c(-c2ccc(-c3ccccc3F)cc2)nc2ccc(F)cc2c1C(=O)O` [brequinar, reference compound]: the “effects on ARN8 growth and p53-dependent transcription ± uridine compared with HZ00” value in the assay on ARN8 cells is “phenocopied the effects of HZ00”.
What is called remaining activity is the signal under treatment as a percentage of the control signal. `CC(C)Oc1ccccc1C1CC(=O)Nc2cc3c(cc21)OCCO3` (stereo not shown) [compound 7800701, 9-(2-isopropoxyphenyl)-2,3,8,9-tetrahydro[1,4]dioxino[2,3-g]quinolin-7(6H)-one]: the remaining activity at 10 µM on recombinant human DHODH [2] is 88.1%.
On the same count and under the same terms, for `COC(=O)c1cccc(NC(=S)Nc2cc(Cl)ccc2OC)c1` [compound 7801595, methyl 3-({[(5-chloro-2-methoxyphenyl)amino]carbonothioyl}amino)benzoate] the value was 100%.
The same measure, in the same setting: to `O=C1CC(c2ccccc2OCc2ccccc2)c2cc3c(cc2N1)OCCO3` (stereo not shown) [compound 7834586, 9-[2-(benzyloxy)phenyl]-2,3,8,9-tetrahydro[1,4]dioxino[2,3-g]quinolin-7(6H)-one] belongs 103%; to `Cc1cc(=O)oc2cc(NC(=S)N3c4ccccc4CC3C)ccc12` (stereo not shown) [compound 7841649, 2-methyl-N-(4-methyl-2-oxo-2H-chromen-7-yl)-1-indolinecarbothioamide], 3.65%.
On the same count and under the same terms, to `Cc1ccc(-c2nc(CN3CCCCC3c3nccs3)c(C)o2)o1` (stereo not shown) [compound 47561416, 1-{[5-methyl-2-(5-methyl-2-furyl)-1,3-oxazol-4-yl]methyl}-2-(1,3-thiazol-2-yl)piperidine] belongs 86.3%.
Take `COc1ccc(-c2nc(CN3CCCC3c3ccccc3OC)c(C)o2)cc1C` (stereo not shown) [compound 47870602, 2-(4-methoxy-3-methylphenyl)-4-{[2-(2-methoxyphenyl)-1-pyrrolidinyl]methyl}-5-methyl-1,3-oxazole]: the “remaining DHODH activity (%) Average” value on recombinant human DHODH [2] was found to be 10.68%.
For the molecule `CC(C)c1nc(C(=O)N2CCC3(CCCN(CCc4ccccc4)C3)C2)cs1` (stereo not shown) [compound 51157786, 2-[(2-isopropyl-1,3-thiazol-4-yl)carbonyl]-7-(2-phenylethyl)-2,7-diazaspiro[4.5]decane], the remaining activity at 10 µM at recombinant human DHODH [2] was -5.48%.
Turning to `Cc1ccccc1-c1noc(-c2ccc(N3CCC[C@H]3CO)nc2)n1` [compound 54631106, ((2S)-1-{5-[3-(2-methylphenyl)-1,2,4-oxadiazol-5-yl]-2-pyridinyl}-2-pyrrolidinyl)methanol], on recombinant human DHODH [2], the “remaining DHODH activity (%) Average” value was 5.94%.
For `CCC(C)Nc1ccc(-c2nc(-c3cccc(OC)c3OC)no2)cn1` (stereo not shown) [compound 55410102, N-(sec-butyl)-5-[3-(2,3-dimethoxyphenyl)-1,2,4-oxadiazol-5-yl]-2-pyridinamine], the remaining activity at 10 µM on recombinant human DHODH [2] turned out to be 2.28%.
The same measure, in the same setting: to `CCN(CC)c1ccc(-c2nc(-c3cccc(OC)c3OC)no2)cn1` [compound 57235883, 5-[3-(2,3-dimethoxyphenyl)-1,2,4-oxadiazol-5-yl]-N,N-diethyl-2-pyridinamine] belongs 9.4%.
The same measure, in the same setting: to `COc1cccc(-c2noc(-c3ccc(N4CCCCC4)nc3)n2)c1OC` [compound 57999135, 5-[3-(2,3-dimethoxyphenyl)-1,2,4-oxadiazol-5-yl]-2-(1-piperidinyl)pyridine] belongs 16.7%; to `COc1ccc(C2c3[nH]c4ccccc4c3CCN2Cc2ccoc2)c(F)c1` (stereo not drawn) [compound 76026685, 1-(2-fluoro-4-methoxyphenyl)-2-(3-furylmethyl)-2,3,4,9-tetrahydro-1H-beta-carboline], 88.5%.
On the same count and under the same terms, to `COc1cccc(-c2noc(-c3ccc(N4CCCC(O)C4)nc3)n2)c1OC` (stereo not shown) [compound 78928129, 1-{5-[3-(2,3-dimethoxyphenyl)-1,2,4-oxadiazol-5-yl]-2-pyridinyl}-3-piperidinol] belongs 42.3%.
Turning to `COc1ccc(C2c3[nH]c4ccccc4c3CCN2Cc2nccs2)cc1C` (stereo not drawn) [compound 90739158, 1-(4-methoxy-3-methylphenyl)-2-(1,3-thiazol-2-ylmethyl)-2,3,4,9-tetrahydro-1H-beta-carboline], the “remaining DHODH activity (%) Average” value on recombinant human DHODH [2] is reported as 91.88%.
On to `C/C(O)=C(\C#N)C(=O)Nc1ccc(C(F)(F)F)cc1` [teriflunomide, reference compound], for which the “effects on ARN8 growth and p53-dependent transcription ± uridine compared with HZ00” value with ARN8 cells is recorded as “phenocopied the effects of HZ00”.
